What was measured:
[1] = tested on: Mus musculus; experiment: Anticonvulsant activity in Swiss albino mouse assessed as decrease in time of maximum electroshock-induced tonic hind leg extension administered as ip at equimolar dose of phenytoin 30 mins before maximum electroshock seizure stimulation measured after 0.5 hrs (reference value: 15.40 +/- 0.50 sec); format: functional, Hindlimb
[2] = tested on: Mus musculus; experiment: Anticonvulsant activity in Swiss albino mouse assessed as decrease in time of subcutaneous PTZ-induced clonic hind leg extension administered as ip at equimolar dose of diazepam 30 mins before subcutaneous PTZ challenge measured after 0.5 hrs (reference value: 76.80 +/- 2.41 sec); format: functional, Hindlimb
[3] = species: Mus musculus; experiment: Neurotoxicity in Swiss albino mouse by rotarod test; format: toxicity, organism-based; conditions: in vivo
[4] = tested on: Mus musculus; experiment: Hepatotoxicity in Swiss albino mouse assessed as change in liver alkaline phosphatase level at 25 mg/kg/day for 15 days; format: toxicity, organism-based; conditions: in vivo, 360 h
[5] = tested on: Mus musculus; experiment: Hepatotoxicity in Swiss albino mouse assessed as change in liver SGOT level at 25 mg/kg/day for 15 days; format: toxicity, organism-based; conditions: in vivo, 360 h
[6] = tested on: Mus musculus; experiment: Hepatotoxicity in Swiss albino mouse assessed as change in liver SGPT level at 25 mg/kg/day for 15 days; format: toxicity, organism-based; conditions: in vivo, 360 h
[7] = tested on: Mus musculus; experiment: Hepatotoxicity in Swiss albino mouse assessed as change in liver total protein level assessed per 100 ml at 25 mg/kg/day for 15 days; format: toxicity, organism-based; conditions: in vivo, 360 h
[8] = tested on: Mus musculus; experiment: Anticonvulsant activity in ip dosed Swiss albino mouse assessed as decrease in time of subcutaneous PTZ-induced clonic hind leg extension administered 30 mins before subcutaneous PTZ challenge measured after 0.5 hrs (reference value: 76.80 +/- 2.41 sec); format: functional, Hindlimb

For `CCc1nc2ccc(Br)cc2c(=O)n1-c1nc2c(OC)cccc2s1`, the Time [1] was 10.2 s, the Time [2] was 98.12 s and the Activity [3] was “Non-toxic”. For the same molecule, the Activity [4] was “Non-toxic”, the Activity [5] was “Non-toxic” and the Activity [6] was “Non-toxic”. For the same molecule, the Activity [7] was 1.82 g.

For `CCc1nc2ccc(Br)cc2c(=O)n1-c1nc2ccccc2s1`, the Time [1] was 7.4 s, the Time [2] was 91.6 s and the Activity [3] was “Non-toxic”. For the same molecule, the Activity [4] was “Non-toxic”, the Activity [5] was “Non-toxic” and the Activity [6] was “Non-toxic”. The Activity [7] was 1.82 g.

With `CCc1nc2ccc(Br)cc2c(=O)n1-c1nc2cc(Cl)ccc2s1` the Time [1] was 8.6 s, the Time [2] was 93 s and the Activity [3] was “Non-toxic”. The Activity [4] was “Non-toxic”, the Activity [5] was “Non-toxic” and the Activity [6] was “Non-toxic”. It also gave an Activity [7] of 1.75 g.

Molecule `CCc1nc2ccc(Br)cc2c(=O)n1-c1nc2cc(OC)ccc2s1` has a Time [1] of 10.6 s and a Time [2] of 89.8 s.

In the case of `CCc1nc2ccc(Br)cc2c(=O)n1-c1nc2cc(C)ccc2s1`, the Time [1] is reported as 11.2 s and the Time [2] is reported as 93.2 s.

`CCc1nc2ccc(Br)cc2c(=O)n1-c1nc2c(C)cc(C)cc2s1` showed a Time [1] of 11.8 s and a Time [2] of 91.6 s.

Work on `CCc1nc2ccc(Br)cc2c(=O)n1-c1nc2ccc([N+](=O)[O-])cc2s1` yielded a Time [1] of 12 s and a Time [2] of 91 s.

Molecule `CCc1nc2ccc(Br)cc2c(=O)n1-c1nc2c(C)cccc2s1` has a Time [1] of 10.5 s and a Time [2] of 95.23 s.

For `CCc1nc2ccc(Br)cc2c(=O)n1-c1nc2ccc(OC)cc2s1`, the Time [1] was 9.7 s, the Time [2] was 99.45 s and the Activity [3] was “Non-toxic”. For the same molecule, the Activity [4] was “Non-toxic”, the Activity [5] was “Non-toxic” and the Activity [6] was “Non-toxic”. For the same molecule, the Activity [7] was 1.78 g.

For `CCOc1cccc2sc(-n3c(CC)nc4ccc(Br)cc4c3=O)nc12`, the Time [1] was 10.1 s, the Time [2] was 98 s and the Activity [3] was “Non-toxic”. The Activity [4] was “Non-toxic”, the Activity [5] was “Non-toxic” and the Activity [6] was “Non-toxic”. The Activity [7] was 1.82 g.

For `CN1C(=O)CN=C(c2ccccc2)c2cc(Cl)ccc21` [DIAZEPAM], the Activity [3] was “Non-toxic” and the Time [8] was 111.6 s.

— ChEMBL document CHEMBL2034838, “Quinazolino-benzothiazoles: fused pharmacophores as anticonvulsant agents” (Eur J Med Chem, 2012)
